The values that follow are results of earlier work, collected in paper PMC6832352, “Synthesis and Glycosidase Inhibition of Broussonetine M and Its Analogues” (Molecules, 2019).

A word on the IC50: it is the concentration that gives 50% inhibition.

Series [1] deals with T1, β-Glucosidase (Bos taurus, UniProt F1MNT6).
T1 sequence (F1MNT6 1-469): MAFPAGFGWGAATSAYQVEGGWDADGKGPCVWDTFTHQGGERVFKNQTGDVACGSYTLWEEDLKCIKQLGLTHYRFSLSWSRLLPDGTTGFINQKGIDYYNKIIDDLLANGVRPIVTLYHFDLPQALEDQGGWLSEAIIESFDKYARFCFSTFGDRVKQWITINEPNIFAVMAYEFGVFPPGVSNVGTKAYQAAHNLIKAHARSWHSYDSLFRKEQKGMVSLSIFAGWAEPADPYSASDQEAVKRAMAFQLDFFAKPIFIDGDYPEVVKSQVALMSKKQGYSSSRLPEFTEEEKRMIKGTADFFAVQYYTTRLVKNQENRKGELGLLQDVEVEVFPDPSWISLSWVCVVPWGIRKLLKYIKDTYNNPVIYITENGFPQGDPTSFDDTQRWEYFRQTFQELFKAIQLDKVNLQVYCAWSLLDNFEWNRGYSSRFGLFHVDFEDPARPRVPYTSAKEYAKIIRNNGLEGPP
The following applies: at 1000 μM, Bovine liver; cited from earlier work.

Series [2] concerns the target β-Glucosidase. The following applies: Almond, cited from earlier work; for inhibition %: at 1000 μM.
Series [3] addresses T2, α-Galactosidase (Coffea arabica, UniProt Q42656).
T2 construct: purchased Sigma-Aldrich Chemical Co
The following applies: at 1000 μM, Coffee beans; cited from earlier work.

Series [4] addresses T3, α-L-Rhamnosidase (Penicillium decumbens, UniProt S7ZS15).
T3 sequence (S7ZS15 1-894): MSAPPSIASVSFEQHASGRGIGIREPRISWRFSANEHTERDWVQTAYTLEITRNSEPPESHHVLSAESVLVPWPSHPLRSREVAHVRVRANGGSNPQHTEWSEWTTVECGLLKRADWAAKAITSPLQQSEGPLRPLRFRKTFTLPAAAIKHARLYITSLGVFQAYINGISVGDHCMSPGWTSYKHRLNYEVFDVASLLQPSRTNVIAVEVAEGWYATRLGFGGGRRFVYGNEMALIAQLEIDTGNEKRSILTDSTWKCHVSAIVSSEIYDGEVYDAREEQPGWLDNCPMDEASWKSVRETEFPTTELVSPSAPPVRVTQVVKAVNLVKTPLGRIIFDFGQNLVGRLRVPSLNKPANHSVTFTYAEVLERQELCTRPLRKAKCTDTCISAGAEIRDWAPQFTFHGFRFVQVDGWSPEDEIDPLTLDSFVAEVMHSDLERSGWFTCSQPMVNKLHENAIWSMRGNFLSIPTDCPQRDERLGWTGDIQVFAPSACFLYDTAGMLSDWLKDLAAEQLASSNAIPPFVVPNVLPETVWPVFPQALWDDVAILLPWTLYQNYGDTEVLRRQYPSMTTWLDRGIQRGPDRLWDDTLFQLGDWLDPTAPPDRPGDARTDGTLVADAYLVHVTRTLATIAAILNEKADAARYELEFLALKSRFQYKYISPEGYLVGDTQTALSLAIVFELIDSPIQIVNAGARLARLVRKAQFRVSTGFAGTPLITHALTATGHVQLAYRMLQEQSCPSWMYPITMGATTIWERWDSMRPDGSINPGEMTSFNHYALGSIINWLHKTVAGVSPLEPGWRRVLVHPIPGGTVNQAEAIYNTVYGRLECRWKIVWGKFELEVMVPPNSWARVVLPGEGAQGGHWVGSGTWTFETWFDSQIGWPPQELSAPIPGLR
The following applies: at 1000 μM, P. decumbens; cited from earlier work.

Series [5] concerns the target β-Mannosidase. The following applies: Snail, cited from earlier work; for inhibition %: at 1000 μM.
In series [6] the target is T4, α-L-Fucosidase (Bos taurus, UniProt Q2KIM0).
T4 construct: purchased Sigma-Aldrich Chemical Co; host or cells: bovine kidney
T4 sequence (Q2KIM0 23-468): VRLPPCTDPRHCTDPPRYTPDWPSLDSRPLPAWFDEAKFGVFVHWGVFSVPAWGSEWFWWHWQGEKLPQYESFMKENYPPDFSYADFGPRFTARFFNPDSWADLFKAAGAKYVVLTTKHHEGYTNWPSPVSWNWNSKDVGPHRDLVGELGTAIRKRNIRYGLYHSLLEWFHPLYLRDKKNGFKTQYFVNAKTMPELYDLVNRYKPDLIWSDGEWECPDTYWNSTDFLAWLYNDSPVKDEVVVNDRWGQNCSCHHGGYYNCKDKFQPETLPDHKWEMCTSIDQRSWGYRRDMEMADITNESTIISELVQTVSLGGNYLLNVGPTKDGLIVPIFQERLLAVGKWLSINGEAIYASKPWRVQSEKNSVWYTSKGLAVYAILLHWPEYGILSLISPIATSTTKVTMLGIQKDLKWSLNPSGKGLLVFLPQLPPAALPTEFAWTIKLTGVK
The following applies: at 1000 μM, Bovine kidney; cited from earlier work.

The target of series [7] is Rat intestinal maltase. The following applies: cited from earlier work.
In series [8] the target is T5, α-Glucosidase (Saccharomyces cerevisiae, UniProt P53341).
T5 construct: purchased Sigma-Aldrich Chemical Co
T5 sequence (P53341 whole entry): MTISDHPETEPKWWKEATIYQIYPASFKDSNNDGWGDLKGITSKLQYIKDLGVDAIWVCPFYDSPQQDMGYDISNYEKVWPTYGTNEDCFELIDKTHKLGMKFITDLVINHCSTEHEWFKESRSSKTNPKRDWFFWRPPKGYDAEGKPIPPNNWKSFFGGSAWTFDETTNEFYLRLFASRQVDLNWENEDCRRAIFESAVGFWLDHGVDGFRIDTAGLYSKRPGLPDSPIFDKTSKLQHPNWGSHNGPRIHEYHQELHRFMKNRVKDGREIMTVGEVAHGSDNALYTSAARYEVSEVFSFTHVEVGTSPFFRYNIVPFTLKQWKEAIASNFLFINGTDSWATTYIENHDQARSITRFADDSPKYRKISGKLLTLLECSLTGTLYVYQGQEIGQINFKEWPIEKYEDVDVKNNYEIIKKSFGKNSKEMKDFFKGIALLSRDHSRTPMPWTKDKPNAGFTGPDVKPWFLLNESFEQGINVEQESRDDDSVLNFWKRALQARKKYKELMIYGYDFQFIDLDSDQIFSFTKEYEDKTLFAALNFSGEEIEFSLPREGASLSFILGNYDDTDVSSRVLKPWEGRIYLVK
As to conditions: Yeast, cited from earlier work; for inhibition %: at 1000 μM.

The test system of series [9] is β-Galactosidase. As to conditions: β-Galactosidase, Bovine liver, cited from earlier work; for inhibition %: at 1000 μM.
Series [10] addresses T6, α-Mannosidase (Canavalia ensiformis, UniProt C0HJB3).
T6 construct: purchased Sigma-Aldrich Chemical Co
T6 sequence (C0HJB3 1-981): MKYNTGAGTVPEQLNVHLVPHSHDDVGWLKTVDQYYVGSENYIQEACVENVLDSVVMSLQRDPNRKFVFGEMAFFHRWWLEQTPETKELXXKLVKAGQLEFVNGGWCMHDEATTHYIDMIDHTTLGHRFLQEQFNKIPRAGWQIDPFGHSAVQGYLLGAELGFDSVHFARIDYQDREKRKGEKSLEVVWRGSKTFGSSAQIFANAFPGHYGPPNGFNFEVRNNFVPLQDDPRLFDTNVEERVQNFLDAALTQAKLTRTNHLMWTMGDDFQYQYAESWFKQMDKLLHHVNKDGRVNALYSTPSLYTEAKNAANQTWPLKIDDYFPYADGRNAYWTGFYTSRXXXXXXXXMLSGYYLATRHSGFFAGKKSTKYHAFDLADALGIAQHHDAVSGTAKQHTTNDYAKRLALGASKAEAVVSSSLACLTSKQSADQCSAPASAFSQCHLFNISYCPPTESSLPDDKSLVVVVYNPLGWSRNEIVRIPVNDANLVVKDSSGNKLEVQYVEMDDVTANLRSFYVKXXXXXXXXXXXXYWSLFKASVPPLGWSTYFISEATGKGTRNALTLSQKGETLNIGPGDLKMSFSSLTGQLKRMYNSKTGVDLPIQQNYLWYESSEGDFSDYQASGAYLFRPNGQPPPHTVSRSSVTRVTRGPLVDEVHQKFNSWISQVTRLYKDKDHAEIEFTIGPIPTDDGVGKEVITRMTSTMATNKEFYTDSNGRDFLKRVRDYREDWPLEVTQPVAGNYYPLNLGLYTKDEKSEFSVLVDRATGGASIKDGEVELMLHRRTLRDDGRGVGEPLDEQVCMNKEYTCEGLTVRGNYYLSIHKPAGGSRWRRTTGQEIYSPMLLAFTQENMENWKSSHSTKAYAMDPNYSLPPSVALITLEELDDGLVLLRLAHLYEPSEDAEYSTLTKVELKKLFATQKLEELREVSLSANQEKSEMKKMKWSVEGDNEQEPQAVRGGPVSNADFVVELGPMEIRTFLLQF
The following applies: Jack bean, cited from earlier work; for inhibition %: at 1000 μM.

For series [11], the target named is T7, β-Glucuronidase (Escherichia coli, UniProt P05804).
T7 construct: purchased Sigma-Aldrich Chemical Co
T7 sequence (P05804 whole entry): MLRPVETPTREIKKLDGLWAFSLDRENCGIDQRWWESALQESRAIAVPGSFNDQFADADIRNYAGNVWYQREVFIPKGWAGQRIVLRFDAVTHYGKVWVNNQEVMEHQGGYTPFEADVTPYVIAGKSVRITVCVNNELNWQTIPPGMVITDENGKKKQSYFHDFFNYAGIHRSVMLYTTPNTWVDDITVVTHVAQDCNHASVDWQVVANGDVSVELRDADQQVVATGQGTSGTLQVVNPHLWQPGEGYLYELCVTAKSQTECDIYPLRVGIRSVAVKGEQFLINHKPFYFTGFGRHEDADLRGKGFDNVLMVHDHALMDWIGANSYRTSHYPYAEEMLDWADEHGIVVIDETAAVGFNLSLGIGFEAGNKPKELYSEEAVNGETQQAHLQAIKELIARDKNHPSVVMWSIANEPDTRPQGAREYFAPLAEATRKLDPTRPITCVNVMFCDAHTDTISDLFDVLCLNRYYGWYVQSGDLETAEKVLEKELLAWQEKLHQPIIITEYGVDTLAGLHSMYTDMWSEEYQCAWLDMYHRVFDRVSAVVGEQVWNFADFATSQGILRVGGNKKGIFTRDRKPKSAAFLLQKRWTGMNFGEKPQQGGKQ
Further details: method as in PMID 22928735. The following applies: E.coli, cited from earlier work; for inhibition %: at 1000 μM.

The subject of series [12] is β-glycosidase. Further details: method as in earlier work. As to conditions: cited from earlier work.
Series [13] concerns the target T8, α-Glucosidase (Oryza sativa subsp. japonica, UniProt Q653V7).
T8 construct: purchased Sigma-Aldrich Chemical Co
The following applies: at 1000 μM, Rice; cited from earlier work.

Each structure is given as a SMILES string. Some results are limits rather than exact numbers.

T2 sequence (Q42656 16-378): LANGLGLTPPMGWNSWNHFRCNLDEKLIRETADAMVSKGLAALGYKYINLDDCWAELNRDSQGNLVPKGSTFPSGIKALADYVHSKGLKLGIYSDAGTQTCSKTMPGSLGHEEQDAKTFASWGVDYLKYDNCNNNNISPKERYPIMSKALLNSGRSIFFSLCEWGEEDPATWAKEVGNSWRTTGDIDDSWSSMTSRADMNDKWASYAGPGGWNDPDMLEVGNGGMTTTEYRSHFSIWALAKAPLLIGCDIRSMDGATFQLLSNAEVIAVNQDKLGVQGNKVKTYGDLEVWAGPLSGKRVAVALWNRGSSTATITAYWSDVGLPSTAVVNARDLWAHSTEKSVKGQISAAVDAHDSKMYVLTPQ
T8 sequence (Q653V7 34-885): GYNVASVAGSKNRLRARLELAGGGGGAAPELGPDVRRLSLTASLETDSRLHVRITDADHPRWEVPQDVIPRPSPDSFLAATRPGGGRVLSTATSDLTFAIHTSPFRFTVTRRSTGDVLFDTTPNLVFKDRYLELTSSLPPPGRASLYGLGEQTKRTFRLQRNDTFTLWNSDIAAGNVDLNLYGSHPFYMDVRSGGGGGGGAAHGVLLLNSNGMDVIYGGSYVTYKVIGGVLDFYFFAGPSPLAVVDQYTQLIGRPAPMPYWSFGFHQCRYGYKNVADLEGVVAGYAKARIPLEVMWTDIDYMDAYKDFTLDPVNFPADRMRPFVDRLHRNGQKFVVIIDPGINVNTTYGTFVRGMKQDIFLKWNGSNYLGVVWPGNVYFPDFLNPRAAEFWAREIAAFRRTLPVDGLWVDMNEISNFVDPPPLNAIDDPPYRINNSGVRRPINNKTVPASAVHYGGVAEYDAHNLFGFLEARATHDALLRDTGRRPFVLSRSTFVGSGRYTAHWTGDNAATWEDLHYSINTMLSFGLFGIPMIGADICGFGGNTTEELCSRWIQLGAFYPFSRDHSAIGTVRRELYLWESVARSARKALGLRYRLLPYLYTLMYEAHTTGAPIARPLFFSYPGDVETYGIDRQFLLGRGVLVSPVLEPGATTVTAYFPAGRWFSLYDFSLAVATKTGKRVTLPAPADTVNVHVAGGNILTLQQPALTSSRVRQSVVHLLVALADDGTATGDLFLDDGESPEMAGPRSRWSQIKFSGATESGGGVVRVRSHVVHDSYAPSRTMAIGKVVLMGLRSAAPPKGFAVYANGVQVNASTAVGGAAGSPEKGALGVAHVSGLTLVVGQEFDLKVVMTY

As for `OC[C@@H]1N[C@@H](CO)[C@H](O)[C@H]1O` (single isomer, unassigned) [L-DMDP (ent-2)], the inhibition % in [1] is reported as 4.6%; in series [2] it was 12.1%; in series [3], 13.8%; in series [4], 45.6%; in series [5], 12.6%; in [6], […]. Besides, the inhibition % is recorded as 34.9% in series [8], […] in series [9], 17.3% in series [10] and 0.8% in series [11]. Besides, the IC50 in series [2] is […]; in [5], […]; in series [7] it was 1.2 µM; in series [8], […]; in [9], […]; in series [10] it was […]. The IC50 in [11] is […].

As to `OCC1NC(CO)C(O)C1O` (stereo not shown) [DMDP (2), 2,5-dihydroxymethyl-3,4-dihydroxypyrrolidine], the IC50 is 10 µM in [2]; 721 µM in series [5]; 290 µM in series [7]; […] in series [8]; […] in [9]; […] in series [10]. Besides, the half-maximal inhibitory concentration (IC50) in series [11] is […]. Also, the inhibition % was 10.5% in [3]; 24.1% in [4]; 37.2% in series [6]; 15.6% in series [8]; 31.5% in [10]; 0.4% in series [11].

Consider `O=C(CCCCO)CCCCCCC[C@@H](O)[C@H]1N[C@H](CO)[C@@H](O)[C@@H]1O` [compound 5, broussonetine F], for which the “β-glycosidase inhibition (in words)” value in series [12] is listed as “potent β-glycosidase inhibition”.

For the compound `OC[C@@H]1N[C@@H](CO)[C@@H](O)[C@H]1O` [L-altro-DMDP], the inhibition % is 10.3% in series [1]; 15.9% in series [2]; 3.7% in series [5]; 35.1% in [8]; […] in series [9]; 37.6% in series [10]. The inhibition % in series [13] is recorded as 9.5%; in series [11], 2.0%. For the same compound, the IC50 in series [2] was […]; in [5] it was […]; in [7], 754 µM; in series [8], […]; in series [9], […]; in series [10], […]. Also, in [11], the IC50 is […].

With `O=C(CCCO)CCCCCCCC[C@@H](O)[C@H]1N[C@H](CO)[C@@H](O)[C@@H]1O` [compound 4, broussonetine E], in series [12], the “β-glycosidase inhibition (in words)” value was “potent β-glycosidase inhibition”.

Regarding `OCC1NC(C(O)CCCCC2CCCC3(CCCO3)O2)C(O)C1O` (stereo not shown) [compound 6, broussonetine G], the “β-glycosidase inhibition (in words)” value in series [12] was “potent β-glycosidase inhibition”.

With `OC[C@@H]1N[C@H](CO)[C@@H](O)[C@@H]1O` [D-gluco-DMDP], the IC50 in series [2] was 256 µM; in [5] it was […]; in [7], 138 µM; in [8], 167 µM; in series [9], […]; in [10], […]. The IC50 in series [11] was […]. Further, the inhibition % is recorded as 38.4% in [3]; 24.1% in series [4]; 14.6% in series [5]; 37.2% in series [6]; 13.3% in series [10]; 5.1% in series [11].
